Results on 37 molecules are retold here after patent publication US9073876B2, “Flap modulators” (JANSSEN PHARMACEUTICA NV, priority 2013, dated 2015).

Counter-ions that a name gives are not always drawn.

Sequence of human FLAP (P20292 whole entry): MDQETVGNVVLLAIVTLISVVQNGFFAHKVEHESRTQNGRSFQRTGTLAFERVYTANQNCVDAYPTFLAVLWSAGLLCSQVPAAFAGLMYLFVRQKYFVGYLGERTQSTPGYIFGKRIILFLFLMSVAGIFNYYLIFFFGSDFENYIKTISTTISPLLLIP

For the first experiment, the target named is human FLAP (Homo sapiens (Human), UniProt P20292). Briefly: FLAP binding assay (HTRF). The note with it: human FLAP-containing membranes, HTRF format; average of two assay plates, duplicates; read-out: FLAP Binding wild type HTRF Ki. On the procedure:
(§1) The ability of the compounds of the present invention to treat a FLAP-mediated disease and/or disorder, or associated symptoms or complications thereof, was determined using the following procedures. Binding assay data represent the average value obtained from two different assay plates, with samples run in duplicate on each plate. Human whole blood assay data represent a single replicate on an assay plate using whole blood from at least one healthy donor.
Data are expressed as a HTRF ratio.
On to `Nc1cnc(-c2ccc(C3CCC3)c(OCC3CCC3)c2F)cn1` [Example 82, 5-[4-Cyclobutyl-3-(cyclobutylmethoxy)-2-fluorophenyl]pyrazin-2-amine], for which the Ki is 0.304 µM.

Regarding “5-(4-Cyclobutyl-2-fluoro-3- methoxyphenyl)pyridin-2-amine hydrochloride salt [Example 178]”, the Ki is 0.354 µM.

For `Nc1ccc(-c2ccc(C3CCC3)c(Oc3cc(O)ncn3)c2F)nn1` [Example 233, 6-(3-(6-aminopyridazin-3-yl)-6-cyclobutyl-2-fluorophenoxy)pyrimidin-4-ol], the Ki was 1.68 µM.

For the molecule `Nc1ccc(-c2ccc(C3CCC3)c(O)c2F)nn1` [Example 223, 3-(6-aminopyridazin-3-yl)-6-cyclobutyl-2-fluorophenol], the Ki was > 10 µM.

With `CS(=O)(=O)c1ccc(Oc2c(C3CCC3)ccc(-c3cnc(N)cn3)c2F)c(C(F)(F)F)c1` [Example 127, 5-(4-cyclobutyl-2-fluoro-3-(4-(methylsulfonyl)-2-(trifluoro-methyl)phenoxy)phenyl)pyrazin-2-amine], the inhibition constant (Ki) was 2.2 µM.

Regarding `Nc1cnc(-c2ccc(C3CCC3)c(OCc3cc(Cl)ccc3C(F)(F)F)c2F)cn1` [Example 43, 5-(3-{[5-Chloro-2-(trifluoromethyl)benzyl]oxy}-4-cyclobutyl-2-fluorophenyl)pyrazin-2-amine], the Ki was found to be 0.43 µM.

With `Nc1cnc(-c2ccc(C3CCC3)c(OCC3CCCCC3)c2F)cn1` [Example 71, 5-[4-Cyclobutyl-3-(cyclohexylmethoxy)-2-fluorophenyl]pyrazin-2-amine], the Ki stood at 0.62 µM.

Turning to `COc1c(Br)ccc(-c2cnc(N)cn2)c1F` [Example 210, 5-(4-bromo-2-fluoro-3-methoxyphenyl)-pyrazin-2-amine], the Ki was found to be 2.5 µM.

With `Cc1ccc(-c2cnc(N)cn2)c(F)c1Oc1ncccn1` [Example 314, 5-[2-Fluoro-4-methyl-3-(pyrimidin-2-yloxy)phenyl]pyrazin-2-amine], the Ki is > 10 µM.

Consider `CC(C)(C)c1ccc(-c2cnc(N)cn2)cc1OCc1ccccc1` [Example 215, 5-[3-(Benzyloxy)-4-tert-butylphenyl]pyrazin-2-amine], for which the Ki was determined as 0.62 µM.

For the molecule `NCCOc1c(C2CCC2)ccc(-c2cnc(N)cn2)c1F` [Example 294, 5-[3-(2-aminoethoxy)-4-cyclobutyl-2-fluorophenyl]pyrazin-2-amine], the Ki is 0.691 µM.

Turning to `Cn1nc(Oc2c(C3CCC3)ccc(-c3cnc(N)cn3)c2F)c(C#N)c1C(F)(F)F` [Example 148, 3-[3-(5-Aminopyrazin-2-yl)-6-cyclobutyl-2-fluorophenoxy]-1-methyl-5-(trifluoromethyl)-1H-pyrazole-4-carbonitrile], the Ki turned out to be 0.101 µM.

For the molecule `CN(C)CCCOc1c(C2CCC2)ccc(-c2cnc(N)cn2)c1F` [Example 267, 5-{4-Cyclobutyl-3-[3-(dimethylamino)propoxy]-2-fluorophenyl}pyrazin-2-amine], the Ki was > 10 µM.

As for `Nc1cnc(-c2ccc(C3CCC3)c(OCC3CCOCC3)c2F)cn1` [Example 264, 5-[4-Cyclobutyl-2-fluoro-3-(tetrahydro-2H-pyran-4-ylmethoxy)phenyl]pyrazin-2-amine], the Ki is > 10 µM.

Turning to `Nc1cnc(-c2ccc(C3CCC3)c(OCc3ccc(OC(F)(F)F)cc3)c2F)cn1` [Example 10, 5-(4-Cyclobutyl-2-fluoro-3-{[4-(trifluoromethoxy)benzyl]oxy}phenyl)-pyrazin-2-amine], the Ki amounted to 0.866 µM.

As to `Nc1ccnc(Oc2c(C3CCC3)ccc(-c3cc4cc[nH]c4nn3)c2F)n1` [Example 270, 2-[6-Cyclobutyl-2-fluoro-3-(7H-pyrrolo[2,3-c]pyridazin-3-yl)phenoxy]pyrimidin-4-amine], the Ki stood at 0.799 µM.

With `Nc1cnc(-c2ccc(C3CCC3)c(OCC(O)CN3CCC(O)C3)c2F)cn1` (mixture of isomers) [Example 308, diastereomeric mixture 1-{3-[3-(5-Aminopyrazin-2-yl)-6-cyclobutyl-2-fluorophenoxy]-2-hydroxypropyl}pyrrolidin-3-ol], the inhibition constant Ki was > 10 µM.

Consider `Nc1cnc(-c2ccc(C3CCC3)c(OCC(O)Cn3cccnc3=O)c2F)cn1` (racemic) [Example 310, racemic 1-{3-[3-(5-Aminopyrazin-2-yl)-6-cyclobutyl-2-fluorophenoxy]-2-hydroxypropyl}pyrimidin-2(1H)-one], for which the Ki is > 10 µM.

On to `Nc1cnc(-c2ccc(C3CCC3)c(OCC(O)CN3CCCC3)c2F)cn1` (racemic) [Example 306, racemic 1-[3-(5-Aminopyrazin-2-yl)-6-cyclobutyl-2-fluorophenoxy]-3-pyrrolidin-1-ylpropan-2-ol], for which the Ki was > 10 µM.

As to `Nc1cnc(-c2ccc(C3CCC3)c(OCC3CCNCC3)c2F)cn1` [Example 298, 5-[4-Cyclobutyl-2-fluoro-3-(piperidin-4-ylmethoxy)phenyl]pyrazin-2-amine hydrogen chloride salt], the Ki is > 10 µM.

For the molecule `CN(C)CCNc1nccc(Oc2c(C3CCC3)ccc(-c3cnc(N)cn3)c2F)n1` [Example 156, N′-{4-[3-(5-Aminopyrazin-2-yl)-6-cyclobutyl-2-fluorophenoxy]pyrimidin-2-yl}-N,N-dimethylethane-1,2-diamine hydrochloride], the Ki was 2.24 µM.

With `Nc1cnc(-c2ccc(C3CCC3)c(OCC(O)CN3CCCCC3)c2F)cn1` (racemic) [Example 303, racemic 5 1-[3-(5-Aminopyrazin-2-yl)-6-cyclobutyl-2-fluorophenoxy]-3-piperidin-1-ylpropan-2-ol], the Ki is > 10 µM.

On to `CCc1ccc(-c2cnc(N)cn2)c(F)c1Oc1ncccn1` [Example 316, 5-[4-Ethyl-2-fluoro-3-(pyrimidin-2-yloxy)phenyl]pyrazin-2-amine], for which the Ki was 0.289 µM.

In the case of `CC(C)CCc1ccc(-c2cnc(N)cn2)c(F)c1Oc1ncccn1` [Example 322, 5-(2-Fluoro-4-isopentyl-3-(pyrimidin-2 yloxy)phenyl)pyrazin-2-amine], the Ki is 0.573 µM.

`N#Cc1nc(N)ncc1Oc1c(C2CCC2)ccc(-c2cnc(N)cn2)c1F` [Example 273, 2-Amino-5-[3-(5-aminopyrazin-2-yl)-6-cyclobutyl-2-fluorophenoxy]pyrimidine-4-carbonitrile]: the Ki is > 10 µM.

Regarding `Nc1cnc(-c2ccc(C3CCC3)c(OCc3cccc(F)c3F)c2F)cn1` [Example 32, 5-{4-Cyclobutyl-3-[(2,3-difluorobenzyl)oxy]-2-fluorophenyl}pyrazin-2-amine], the Ki was determined as 0.354 µM.

Regarding `Nc1cnc(-c2ccc(C3CCC3)c(OCc3nc4ccccc4s3)c2F)cn1` [Example 283, 5-[3-(1,3-Benzothiazol-2-ylmethoxy)-4-cyclobutyl-2-fluorophenyl]pyrazin-2-amine trifluoroacetic acid salt], the Ki amounted to 0.0976 µM.

Turning to `Nc1cnc(-c2ccc(C3CCC3)c(OCC3CCCN3)c2F)cn1` (racemic) [Example 302, racemic 5-[4-Cyclobutyl-2-fluoro-3-(pyrrolidin-2-ylmethoxy)phenyl]pyrazin-2-amine], the Ki was > 10 µM.

Regarding `Nc1cnc(-c2ccc(C3CCC3)c(OCc3ccc(F)cc3C(F)(F)F)c2F)cn1` [Example 44, 5-(4-Cyclobutyl-2-fluoro-3-{[4-fluoro-2-(trifluoro-methyl)benzyl]oxy}phenyl)pyrazin-2-amine], the Ki was found to be 1.5 µM.

Take `COc1cc(Oc2c(C3CCC3)ccc(-c3ccc(N)nn3)c2F)ncn1` [Example 232, 6-(4-cyclobutyl-2-fluoro-3-((6-methoxypyrimidin-4-yl)oxy)phenyl)pyridazin-3-amine]: the Ki came out at 1.59 µM.

Regarding `Cn1ccnc1COc1c(C2CCC2)ccc(-c2cnc(N)cn2)c1F` [Example 280, 5-{4-Cyclobutyl-2-fluoro-3-[(1-methyl-1H-imidazol-2-yl)methoxy]phenyl}pyrazin-2-amine trifluoroacetic acid salt], the Ki is > 10 µM.

Take `Nc1ccc(-c2ccc(C3CCC3)c(Oc3ncccn3)c2F)nn1` [Example 231, 6-(4-cyclobutyl-2-fluoro-3-(pyrimidin-2-yloxy)phenyl)pyridazin-3-amine]: the inhibitory constant (Ki) stood at 2.14 µM.

Turning to `N#Cc1nc(N)cnc1-c1ccc(C2CCC2)c(O)c1F` [Example 173, 6-amino-3-(4-cyclobutyl-2-fluoro-3-hydroxyphenyl)pyrazine-2-carbonitrile], the Ki amounted to 0.682 µM.

The next experiment relates to leukotriene pathway in human whole blood (LTB4 levels). Nature of the experiment: Human whole blood assay (LTB4). It counts as cell-based. The note with it: human whole blood diluted 1:1 in RPMI, stimulated with calcium ionophore A23187; single replicate. On the procedure:
as §1
An in vitro cellular assay was performed using human whole blood collected in heparin-containing tubes, which was used to test the ability of compounds to modulate the leukotriene pathway in human whole blood. The blood was diluted 1:1 in RPMI medium, pre-incubated for 15 min at 37° Celsius with test compounds at various concentrations, and then stimulated with calcium ionophore, A23187 (7 μg/mL), for 30 min at 37° Celsius. The samples were then centrifuged and plasma was removed. The plasma was diluted in assay buffer and LTB4 levels were measured using a commercial kit (Enzo Life Sciences). The concentration of each compound that was required for half-maximal inhibition (modulation) of recombinant enzyme activity (IC50) was calculated by a 4-parameter equation using the program GraphPad Prism (GraphPad software).
As for `N#Cc1ccnc(Oc2c(C3CCC3)ccc(-c3cnc(N)cn3)c2F)n1` [Example 92, 2-[3-(5-Aminopyrazin-2-yl)-6-cyclobutyl-2-fluorophenoxy]pyrimidine-4-carbonitrile], the IC50 stood at 6.66 µM.

Consider `COc1c(C2CCC2)ccc(-c2cnc3c(c2)CCN3)c1F` [Example 198, 5-(4-cyclobutyl-2-fluoro-3-methoxyphenyl)-2,3-dihydro-1H-pyrrolo[2,3-b]pyridine], for which the IC50 amounted to 2.37 µM.

As for `COc1cc(Oc2c(C3CCC3)ccc(-c3cnc4[nH]ccc4c3)c2F)ncn1` [Example 228, 5-(4-cyclobutyl-2-fluoro-3-((6-methoxypyrimidin-4-yl)oxy)phenyl)-1H-pyrrolo[2,3-b]pyridine], the IC50 came out at 0.48 µM.

On to `Nc1cnc(-c2ccc(C3CCC3)c(Oc3cnc4cc(F)c(F)cc4n3)c2F)cn1` [Example 271, 5-{4-Cyclobutyl-3-[(6,7-difluoroquinoxalin-2-yl)oxy]-2-fluorophenyl}pyrazin-2-amine], for which the IC50 stood at 0.0853 µM.
